Measured values from a melting point compilation (Tetko et al.; mined from patent text by program, amines drawn as free bases though some values may be those of a salt).

Compound	melting point [°C]
CC(C)c1cccc(C(C)C)c1-c1cc(OCc2ccccc2)ccc1CC(NC(c1ccccc1)c1ccccc1)C(N)=O (centres undefined)	148 to 150
COC(=O)c1c(Cl)ccc2[nH]c(Sc3cccc4c(S(C)(=O)=O)c[nH]c34)nc12	284 to 286
Nc1c(-c2ccc(Cl)cc2Cl)nnn1Cc1ccc(S(N)(=O)=O)cc1	204 to 206
CC(C)c1cccc(C(C)C)c1NC(=O)Nc1ccc(Oc2ccc3nc(COc4ccc(CC5SC(=O)NC5=O)cc4)n(C)c3c2)cc1 (centres undefined)	222 to 225
COc1cc(CC(=O)O)ccc1OCCc1ccccc1	97 to 100
Cc1cc(C(=O)Nc2ccc(C(=O)O)cc2)no1	267 to 270
CNc1c(F)c(F)c(F)c2c1c(=O)c(C(=O)O)cn2C1CC1	205 to 207
Cc1oc(-c2ccccc2)nc1CCOc1ccc(COc2ccccc2CC(=O)O)cc1	141 to 142
N=c1sc2cc(OC(F)(F)F)ccc2n1CCSCCCC(=O)c1ccccc1	72
NC(=O)CN1C(=O)COc2cc(F)ccc21	212 to 214
O=C(O)COc1c(Br)cc2oc(C(=O)c3ccccc3)cc2c1Br	179 to 181
Clc1cccc(CCC2(Cn3ccnc3)SCCS2)c1	224 to 227
NN1C=NNC1=Cc1ccccc1O	210 to 212
COc1ccc(C#N)cc1C(=O)NCCN1CCC(C(=O)c2ccc(F)cc2)CC1	167 to 169
COc1cc2c(cc1C#Cc1ccc(C)cc1)C(C)(C)CCC2(C)C	127
COC(=O)c1cc(OCCCOc2ccccc2-c2ccccc2)cc(OCCCOc2ccccc2-c2ccccc2)c1	77 to 79
CCCc1nc2c(N)nc3cc(OCC(=O)c4ccccc4)ccc3c2n1CC(C)C	178 to 180
CCCN1CCC(Cc2ccc3c(c2)c(Cc2ccc(C(=O)NS(=O)(=O)c4ccccc4C)cc2OC)cn3C)C1=O (centres undefined)	112 to 122
CSc1cc2ncnc(Nc3cccc(C)c3)c2cc1[N+](=O)[O-]	230 to 231
CC1CCc2c(N3CCOCC3)c(F)cc3c(=O)c(C(=O)O)cn1c23 (centres undefined)	279 to 280
Cn1cc(C(=O)NCc2ccc(Cl)cc2)c(=O)c2cc(CN3CCOCC3)cc(C#Cc3cccnc3)c21	195 to 197
Nc1cc(-n2cccn2)nc(-c2ccc(Br)o2)n1	221 to 222
COC(=O)N(C)C1CN(C(=O)Nc2ccc(OC(F)(F)F)cc2)NC1c1ccc(Cl)cc1 (centres undefined)	179 to 181

Compound	melting point [°C]
COc1ccc(-c2c(-c3ccccc3)nn3ccccc23)nn1	203 to 205
O=C(C#Cc1ccccc1)Nc1nc2ccccc2s1	174 to 176
CC(C)(Oc1ccc(CC(=O)Nc2ccc(Cl)cc2)cc1)C(=O)O	163
COc1cc(N2CCN([C@H]3CC[C@H](c4cn(C)c5ccc(C#N)cc54)CC3)CC2)c2ncccc2c1Cl	215 to 216
CNC(=O)Oc1ccc2c(N(C)CCN3CCOCC3)noc2c1	94 to 95
CC(C)C(C(=O)NC1CCCCC1)N1CC(=O)NCC(=O)NCC(=O)NCC(=O)NCC(=O)NCC1=O (centres undefined)	275
N#Cc1cccc2c1nc(-c1c(F)cccc1F)n2Cc1c(F)cccc1F	153 to 155
CCCOCCOC(=O)C1=C(C)NC(C)=C(c2nc(CCl)no2)C1c1cccc([N+](=O)[O-])c1 (centres undefined)	129 to 130
Cc1cc(-c2ccc(OC(F)(F)F)cc2)ccc1C1COC(c2c(F)cccc2F)=N1 (centres undefined)	78.5 to 79
CC(=O)Oc1ccccc1C(=O)OCCSS(C)(=O)=O	90 to 91
CCc1ccc(-c2ccc3c(c2)C=C(C(=O)Nc2ccc(CN(C)C4CCOCC4)cc2)CCN3C)cc1CC	127 to 129
COc1ccc(Cl)c(Oc2c(CCl)nc(N3CCOCC3)nc2NS(=O)(=O)c2ccc(C(C)C)cn2)c1	205
O=C(O)CCc1ccc(CCNC(=O)c2ccccc2)cc1	164 to 165
C=CC(NC(C)=O)C(=O)NCc1ccccc1 (centres undefined)	136 to 138
CCC(=O)SCC(Cc1ccccc1)C(=O)Nc1cc(C)cc(C(=O)O)c1 (centres undefined)	151 to 153
COc1cc2c3c(c1)nc(SCc1ccncc1)n3CCC2	99 to 101
Cc1ccccc1C(C(=O)N[C@H]1CCN(CCc2ccc(F)cc2)C1)c1ccccc1C	108 to 110
N#Cc1nn(-c2c(Cl)cc(C(F)(F)F)cc2Cl)c(N)c1C(=O)C(F)(F)F	226
Cc1ccc(S(=O)(=O)OCC2Cc3cc(F)cc(Br)c3O2)cc1 (centres undefined)	84 to 86
CSc1cnnc(Cl)c1	98 to 100
C=CCON=C(C(=O)OCC)c1csc(NC(c2ccccc2)(c2ccccc2)c2ccccc2)n1	130 to 132
O=C(Nc1ccc([N+](=O)[O-])cc1)c1ccccc1Br	200 to 202
O=C(O)Cc1c(C(=O)O)c2cc(Oc3cccc(Cl)c3)ccc2n1-c1ccccc1	192 to 194

Compound	melting point [°C]
O=C1COCCOCC(=O)N2CCOCCOCCN1CCOCC2	105
Cc1c(-c2ccc3sc(=O)n(C)c3c2)nc2ccccn12	206 to 208
COC(CN1CCN(c2ccccc2)CC1)c1ccc(C)nc1 (centres undefined)	93
CC(C)(C)OC(=O)CCc1ccnc(-c2nc(=O)c3ccc(Br)cc3s2)c1	173 to 174
CN1C(=O)C(C)(C)N=C(c2ccccc2F)c2c1cc(Br)c(N)c2Br	202
COc1cc(SCc2ccccc2)c([N+](=O)[O-])cc1OC	174 to 176
CC(=O)NCc1ccc2c(c1)N(C1CCN(CCCCc3ccc(F)cc3)CC1)CC2	119 to 121
N#Cc1ccc(N(CCOc2ccc(OCc3ccccc3)cc2)n2cnnc2)cc1	160 to 162
CC(C)(C)Nc1c(NCc2cccc(C(F)(F)F)c2)c(=O)c1=O	237 to 239
NC(=O)N(O)CC(=O)Nc1ccc(Oc2ccccc2)cc1	190
CC(C)(O)c1ccc(-c2cnc3c(n2)N(CC2CCOCC2)CC(=O)N3)cn1	268 to 269
O=C(O)CN1C(=O)c2cccc3c(Cl)ccc(c23)C1=O	260
N#Cc1ccc(-c2c[nH]cn2)cc1	164 to 167
CCC(C(=O)c1ccc(Cl)cc1)n1ncn(-c2ccc(N3CCN(c4ccc(OC)cc4)CC3)nc2)c1=O (centres undefined)	142
CC(C)COC(=O)C(N)C=CCP(=O)(O)O (centres undefined)	163 to 164
O=c1[nH]c2ccc(S(=O)(=O)N(CCO)CCO)cc2[nH]c1=O	272 to 276
CCCCc1cc(O)cc(=O)o1	110 to 111
CCOC(=O)c1nn(Cc2cn(C(c3ccccc3)(c3ccccc3)c3ccccc3)cn2)c2cc(OC)c(OC)cc12	184 to 186
CCCCCCCCCCCCCCCC(=O)OCCN(C)C	46 to 48
COC(=O)CCC#Cc1nc(Cl)ccc1N	96 to 100
CCOC(=O)c1ccc(C#CC(O)c2cc(C(C)(C)C)cc(C(C)(C)C)c2OCOC)cc1 (centres undefined)	89 to 91
CC(C)ON=Cc1cc(-n2c(=O)cc(C(F)(F)F)n(C)c2=O)ccc1Cl	105 to 107
COc1ccc(-c2ccc(C(=O)Nc3cc4ncc(CN5CCCC5)cc4cc3C)c(F)c2)cc1	187 to 190
